Results reported in US20050100888A1, “Methods based on hormone dependency of primary cancer cells” (Imperial College Innovations Limited, priority 2002, published 2005).

How the values were obtained:
estrogen receptor (ER) [1] = test: adeno-reporter assay in purified primary breast cancer cells (tumour, lymph node); type: cell-based, human; details: for Reporter response: E2 10 nM, OHT 100 nM, ICI 100 nM, 48 h
Procedure: (§1) The product was then filtered through a nylon mesh (Lockertex Ltd, Merseyside, UK) and the filtrate centrifuged at 2000 rpm, at room temperature (RT). The pellet was re-suspended in 9 mls of RPMI/1% FCS and a cell count performed to estimate the number of tumour cells in the preparation. […] A count of viable tumour cells was performed using trypan blue (Sigma, Poole, UK) prior to seeding in breast complete medium (DMEM/F-12 containing, 15 mM Hepes, 2 mM L-glutamine, 100U/ml penicillin, O. 1 mg/ml streptomycin, 50 U/ml polymixin B, 2.5 μg/ml amphotericin B, 5 μg/ml insulin, 10 μg/ml apo-transferrin, 100 μM ethanolamine, 1 μg/ml hydrocortisone, 10 ng/ml EGF) plus 5% FCS) for culture. The cells were used for experiments on day 3 after the initial plating.
(§2) For infections of primary cells, 6-10,000 cells/well were allowed and exposed to the given quantity of virus, after which they were pelleted and re-supended in 200 ul of PR free/5% DSS medium containing the appropriate ligands prior to plating into 96-well plates.
(§3) Cells were incubated for 48 hours following infections unless stated otherwise.
(§4) Reporter Gene Assay 48 hours after virus infection, 20 ul of 20% Triton in PBS was added to each well and incubated at RT for 10 minutes. […] (CRPG) made up in TBS at a concentration of 8 mg/ml was then added to the wells and the plate was incubated, foil-wrapped, at 37° C. until a colour change was observed. Plate readings were taken at a wavelength of 547 nm.
(§5) We have used the adeno-reporter to infect purified cells from breast cancer and lymph nodes of 19 patients. The reporter assay was performed in a blinded fashion since the IHC report of ER status was not available until after the experiments were complete. Viral infections were performed in suspension so as not to loose cancer cells since they were only loosely adherent. Following exposure to the virus for an hour, the cells were washed to remove excess virus and then plated and incubated in PR free/5% DSS supplemented with the given ligands for 48 hours.

estrogen receptor (ER) [2] = biological target: T1, estrogen receptor (ER) (Homo sapiens, UniProt P03372); test: as above; type: cell-based; details: E2 10 nM, OHT 100 nM, ICI 100 nM, 48 h
T1 sequence (P03372 1-595): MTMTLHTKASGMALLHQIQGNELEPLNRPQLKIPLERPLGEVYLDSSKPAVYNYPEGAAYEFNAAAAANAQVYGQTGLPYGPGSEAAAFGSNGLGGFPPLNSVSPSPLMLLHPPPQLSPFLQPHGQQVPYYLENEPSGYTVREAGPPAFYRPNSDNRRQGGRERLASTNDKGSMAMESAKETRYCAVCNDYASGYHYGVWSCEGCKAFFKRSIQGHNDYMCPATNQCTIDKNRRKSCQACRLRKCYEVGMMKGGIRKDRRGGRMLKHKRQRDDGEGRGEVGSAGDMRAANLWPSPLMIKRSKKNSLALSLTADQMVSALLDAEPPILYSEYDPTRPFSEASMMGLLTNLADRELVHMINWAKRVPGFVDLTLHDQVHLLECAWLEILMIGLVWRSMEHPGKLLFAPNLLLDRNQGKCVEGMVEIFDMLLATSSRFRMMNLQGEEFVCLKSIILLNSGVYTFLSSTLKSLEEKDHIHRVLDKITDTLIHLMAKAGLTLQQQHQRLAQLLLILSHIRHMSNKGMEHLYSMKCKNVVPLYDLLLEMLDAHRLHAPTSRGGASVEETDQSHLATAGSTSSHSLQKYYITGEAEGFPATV
Procedure: as §1, §2, §3, §4, §5

estrogen receptor (ER) [3] = test: viral ER reporter in ER negative breast cancer cell lines; type: cell-based, human; details: virus 100:1
Procedure: FIG. 3: Reporter activity in variety of estrogen receptor alpha positive (MCF-7, T47-D, ZR75-1, BT474) and negative (Cal-51, SkBr3, and MDA-MB231 cell lines). For each figure, the order is as follows: (1) refers to the no ligand control.
For adenovirus infections, cell lines were plated in 96 wells at the given density in phenol red free DMEM supplemented with 5% double-stripped serum (PR/5% DSS). The following day cells were exposed to the given quantity of plaque forming units per cell (multiplicity of infection, MOI) in PR/SF medium. This was incubated at 37° C. for 1 hour after which the media was replaced by PR free/5% DSS containing the ligands.
as §4
We went on to test the virus reporter in a variety of ER positive and ER negative cell lines. Again 0.5×10^5 cells were infected with 100 virus per cell (100:1). Using the GFP virus it was evident that the infectability of the cell lines was variable. […]

estrogen receptor (ER) [4] = biological target: T1, estrogen receptor (ER); details: antagonist at 10^−7M; MCF7, virus 100:1, 48 hours
Procedure: as §3, §4

estrogen receptor (ER) [5] = test: adenoERreporter assay in breast cancer cells from metastatic effusions (pleural, ascites); type: cell-based, human
Description: In the case of metastatic fluid, 100 mls of the fluid was sent for cytological examination and staining for ER and PR. The remaining fluid was centrifuged and the cell pellets were pooled. This was re-suspended in RPMI-1640/1% FCS and tumour cell numbers estimated as before. If the cells were in clusters, trypsin/EDTA (Sigma, Poole, UK) was used to obtain single cell suspensions before filtering to remove any debris. The remaining steps were as above. The purified cells were either infected immediately or cultured for a few days prior to infection.
as §2, §4
We purified breast cancer cells from metastatic fluid, both pleural and ascites as well as fine needle aspirates (FNA) from recurrent breast cancer. These cells were counted and infected with adenoERreporter and after 48 hours a β-gal assay was performed. We have infected 9 metastatic effusions including 2 cell lines of passage number two, derived from pleural effusions and 4 FNAs. Tables 3 and 4 show the treatment history and characteristics of the patients that provided the samples. Where possible, some of the fluid was sent for cytology and ER staining.

C[C@]12CC[C@@H]3c4ccc(O)cc4C[C@@H](CCCCCCCCC[S+]([O-])CCCC(F)(F)C(F)(F)F)[C@H]3[C@@H]1CC[C@@H]2O (stereo partly shown) [ICI 182,780]
Reporter response (estrogen receptor (ER) [1]; Table 2 patient 3 Ln): inh | Reporter response (estrogen receptor (ER) [1]; Table 2 patient 5 Ln, ER+/PR−, Pre): ns | Reporter response (estrogen receptor (ER) [1]; Table 2 patient 8, ER+++/PR−, Post): ns | Reporter response (estrogen receptor (ER) [1]; Table 2 patient 11, receptor status ?): inh | Reporter response (estrogen receptor (ER) [1]; Table 2 patient 12 Ln): ns | Reporter response (estrogen receptor (ER) [1]; Table 2 patient 12 Tu, Anaplastic small cell carcinoma, ER−/PR−): ns | Reporter response (estrogen receptor (ER) [1]; Table 2 patient 13, ER−/PR−, Post): ns | Reporter response (estrogen receptor (ER) [1]; Table 2 patient 15 Ln): ns | Reporter response (estrogen receptor (ER) [1]; Table 2 patient 15 Tu, ER−/PR−): ns | Reporter response (estrogen receptor (ER) [1]; Table 2 patient 16 Ln): ns | Reporter response (estrogen receptor (ER) [1]; Table 2 patient 16 Tu, Post): ns | Reporter response (estrogen receptor (ER) [1]; Table 2 patient 17): ns | Reporter response (estrogen receptor (ER) [1]; Table 2 patient 18, ER−/PR−): ns | effect on reporter activity across patient samples (estrogen receptor (ER) [1]; purified cells from breast cancer and lymph nodes of 19 patients): inhibitory in all cases | Reporter response (estrogen receptor (ER) [2]; Table 2 patient 6, ER+++/PR+++): inh | Reporter response (estrogen receptor (ER) [2]; Table 2 patient 7, ER+++/PR+++, Post): inh | effect on ERE driven β-gal reporter / baseline activity (estrogen receptor (ER) [3]): did not have a significant effect on the baseline activity | effect on E2 induced reporter activity (estrogen receptor (ER) [4]): blocked E2 induced reporter activity | Reporter Activity (estrogen receptor (ER) [5]; Table 3 patient 7) T4G3N1M0, Ascites, ER−/PR−, no prior endocrine treatment): x1.0 | Reporter Activity (estrogen receptor (ER) [5]; Table 3 patient 8) T1G1N1M0, Ascites, primary ER−/PR+, recurrent ER++/PR−, prior LHRH 11m, Arimidex): ↓↓ | effect on ER activity (estrogen receptor (ER) [5]; patient 4 (table 3), ascites, no previous treatment): inhibitory | proportion of cases in which inhibitory (estrogen receptor (ER) [5]; relapsed patients, metastatic effusions and FNAs): 50%
